Legend:
rat hepatocyte HDAC = assay: Fluor de Lys HDAC inhibition assay in crude rat hepatocyte lysates; type: biochemical; details: Fluor de Lys substrate, n = 3 or 4, read-out: Estimated IC50 values for tested compounds
Experimental: Screening of the HDAC inhibiting potencies of the above compounds was performed in crude rat hepatocyte lysates, prepared from freshly isolated cells, using the Fluor de Lys HDAC inhibition assay as detailed in example 9.
A two-step collagenase perfusion technique was used to isolate hepatocytes from male outbred Sprague-Dawley rats (200-300 g; Charles River Laboratories, Brussels, Belgium), which were kept under controlled environmental conditions (12 h light-dark cycle) and fed a standard diet (Animalabo A 04) with water ad libitum. Procedures for housing of the animals, and for isolation and cultivation of the rat hepatocytes were approved by the local ethical committee of the Vrije Universiteit Brussel (VUB, Brussels, Belgium).
Inhibition of HDAC activity was assessed in crude rat hepatocyte lysates by the Fluor de lys HDAC inhibition protocol as outlined herein:
HDAC Fluorescent Activity Assay/Drug Discovery Kit, Tebu-bio, AK-500.
• HDAC: thaw a rat hepatocyte cell extract (containing 6 mg/ml proteins) in tap water at room temperature, store on ice. • HDAC inhibitor:
Prepare a dilution series in assay buffer.
• Add 500 μl homogenisation buffer to 30×10^6 hepatocytes (pellets stored at −80° C.). • Ultrasonicate on ice 2×30 pulses • Let the homogenate(s) rest on ice during 5 min. • Transfer the homogenate(s) to 1.5 ml eppendorf tube(s) on ice, vortex vigorously. • Centrifugate at 14000 rpm in the microcentrifuge during 5 min at 4° C. • Determine the protein concentration (Bradford protein assay) of the supernatant, discard the pellets. • Dilute the extract(s) to a protein concentration of 6 mg/ml. Divide in aliquots of 500 μl (eppendorf tubes) and store for later use at −80° C.
1. bring 10 μl inhibitor/control solvents/assay buffer per well 2. add 15 μl cell extract to each well (for the blank: 15 μl boiled cell extract) 3. incubate 5 min at room temperature (cover plate with aluminium foil) 4. add 25 μl Fluor de Lys substrate to each well (40 μM solution, […]) 5. cover the plate with aluminium foil and incubate 15 min on orbital shaker 6. after 15 min, add 50 μl freshly prepared, ice-cold developer solution to each well 7. cover the plate with aluminium foil and incubate 15 min on orbital shaker 8. Measure the fluorescence in the plate reader
• Subtract the blank value (boiled extract) (background signal) • Calculate as % of ethanol control, that is set 100% • If the concentrations are spread around the 50% inhibition value, than the IC50 value can be calculated. […] (Note: the concentration should be set out as their logarithmic values)

primary rat hepatocytes [1] = assay: Inhibition of DNA synthesis (3H-methylthymidine incorporation) in EGF-stimulated primary rat hepatocytes; type: cell-based; details: DNA synthesis at day 3 (72 h), EGF 50 ng/ml
Experimental: Results are expressed as percentage of positive control (untreated cells cultured in the presence of mitogen). Total inhibition of hepatocyte proliferation is considered when DNA synthesis of treated cells equals DNA synthesis level of negative control (untreated cells cultivated in the absence of mitogen). Results shown are the means±SD from 4 or more independent experiments.
Screening of the anti-proliferative activity of the above compounds (effect on DNA synthesis) was performed as in example 10a.
The maximal (100%) inhibition of rat primary hepatocyte proliferation has been achieved with following concentrations:
Dose-dependent inhibition of cell proliferation by Jung-type HDACi after 3 days of incubation. Hepatocytes (0.4×10^5 cells/cm^2) were cultured in duplicate in a mixture of MEM/M199 (3:1, v/v) and stimulated to proliferate with EGF (50 ng/ml) 4 h after plating. Exposure to the indicated concentrations of HDACi started at time of plating and was maintained for 3 consecutive days. ^3H-methylthymidine incorporation was measured at day 3 (72 h) of culture. Cells cultured in the absence of EGF serve as a negative control for hepatocyte proliferation (neg. contr.) whereas cells stimulated with EGF alone serve as a positive control for hepatocyte proliferation (pos. contr.). Results are expressed as the percentage of maximal incorporation observed in hepatocytes cultured in the presence of EGF alone. Values shown are the means±SD of duplicate cultures of 3 experiments.

primary rat hepatocytes [2] = assay: Location of cell cycle arrest in primary rat hepatocytes from cell cycle marker expression; type: cell-based; details: 3 days incubation; absence of cyclin D1 and cdk1 protein expression, prior to the restriction point
From the text: Assessed as in example 11a.
The effect of the different 6C-spacer compounds on the expression of key cell cycle proteins was investigated as well in order to identify the location of the cell cycle arrest.
Two cell cycle markers were studied as detailed in example 11a (see FIG. 8 for results): (a) cyclin D1, this protein is typically expressed when hepatocytes were able to pass the restriction point located in the mid-late G1 phase; and (b) cdk1, which is a marker for the S/G2/M phase (DNA synthesis takes place in the S phase).
Hepatocytes (0.4×10^5 cells/cm^2) were cultured in duplicate in a mixture of MEM/M199 (3:1; v/v) and stimulated to proliferate with EGF (50 ng/ml) 4 h after plating. Exposure to the indicated concentrations of HDACi started at time of plating and was maintained for 3 consecutive days: Cells were then harvested and analyzed for cyclin D1 and cdk1 expression levels (20 μg proteins/lane). Total ERK staining serves as a loading control.

HDAC = details: literature statement; cited from earlier work
[3] = system: freshly isolated rat hepatocytes; details: incubated with freshly isolated rat hepatocytes, compared with TSA; cited from earlier work
HNF-1α = assay: LETF immunofluorescence during hepatic differentiation of RLECs; type: cell-based, rat; details: TSA added to Sequential 3 differentiation protocol
Experimental: (§1) A: HNF-3b, B: HNF-4, C: HNF-1a, a: with DAPI counterstain, b: without DAPI counterstain.
(§2) • rinse cells 3× with PBS • fix nuclear and cytoplasmic proteins at room temperature for 10 min with 4% PFA (cold), connexins at −20° C. for 10 min with Ethanol/Aceton (50/50) and cytoskeletal proteins at −20° C. for 10 min with Ethanol. • wash 3×5 min with PBS • proceed with staining or store wells in PBS at 4° C. • check cells under microscope for autofluorescence and attachment • incubate 15 min with 100 mM glycin in PBS (used to saturate reactive groups generated after PFA fixation) • wash 3×5 min with PBS • incubate 15 min with PBST (permeabilization) • rinse 3× with PBS • block 45 min with block buffer at room temperature • incubate overnight at 4° C. with primary Ab diluted in PBS • rinse with PBS • wash 4×15 min with PBS • incubate with fluorescence-labeled secondary Ab 1 h 30 at room temperature (dilute Ab in PBS) • keep dark • wash 4×15 min with PBST • rinse with distilled water • mount with Vectashield with DAPI (use 3 drops per well)
(§3) For this experiment, the protocols of example 5 were used to differentiate RLECs towards the hepatic lineage with the exception of the sequential procedure. Sequential 3 from example 6 was used to differentiate the cells instead of the one stated in example 5. The immunofluorescence protocol-staining on cultured cells was used as stated in example 8.

HNF-4 = assay: as above; type: cell-based, rat; details: TSA added to Sequential 3 differentiation protocol
Experimental: as §1, §2, §3

HNF-3β = assay: as above; type: cell-based, rat; details: TSA added to Sequential 3 differentiation protocol
Experimental: as §1, §2, §3

RLEC = assay: Morphology of RLEC differentiated in the presence of an HDAC inhibitor; type: cell-based, rat
Experimental: FIG. 15 illustrates morphology of RLEC differentiated in the presence of an HDAC inhibitor, as explained in example 13.
RLEC at 100% confluence are used for differentiation into hepatocyte-like cells: • after sub-cultivation, detach cells as described above and suspend all cells derived from 1 T75 and 1 T150 in 3 ml and 6 ml of new growth medium (37° C.), respectively. • homogenize the cell suspension by pipetting up and down. • add 420 μl growth medium to a 2 cm^2-well • transfer 80 μl of cell suspension to the middle of a 2 cm^2-well, precoated with 50-100 μg/ml collagen type I • tap to homogenize cell suspension; check cells under microscope • incubate cells at 37° C. in growth medium until cells have reached 100% confluence. • At 100% confluence, remove growth medium and expose cells to basal medium supplemented with liver specific factors, as follows: 1. days 0-1: 10 ng/ml FGF-4 2. days 1-3: 10 ng/ml FGF-4, 20 ng/ml HGF 3. days 3-6: 5 ng/ml FGF-4, 30 ng/ml HGF, 0.5×ITS 4. days 6-9: 30 ng/ml HGF, 0.25×ITS; 0.05 μM dexamethasone 5. days 9-12: 20 ng/ml HGF, 0.05 μM dexamethasone 6. days 12-15: 10 ng/ml HGF; 10 ng/ml OSM, 0.05 μM dexamethasone 7. From day 15 on: 10 ng/ml OSM, 0.05 μM dexamethasone
RLEC are differentiated without initial FGF-4 exposure, according to the following sequence:
1. days 0-3: 20 ng/ml HGF 2. days 3-6: 5 ng/ml FGF-4, 30 ng/ml HGF, 0.5×ITS 3. days 6-9: 30 ng/ml HGF, 0.25×ITS; 0.05 μM dexamethasone 4. days 9-12: 20 ng/ml HGF, 0.05 μM dexamethasone 5. days 12-15: 10 ng/ml HGF; 10 ng/ml OSM, 0.05 μM dexamethasone 6. From day 15 on: 10 ng/ml OSM, 0.05 μM dexamethasone
The results are illustrated in FIG. 15. […] The cells still have the characteristic RLEC shape. […] Optimisation of HDAC inhibitor concentration to reduce cell death is within the reach of a skilled person.

CYP1 A1 = assay: Expression of CYP450 isoforms in rat primary hepatocytes; type: cell-based; details: 4 days exposure; expression lost in untreated controls
Experimental: (§4) Measured as in example 11b.
(§5) Furthermore, pro-differentiating effect of AN-6, AN-8 and AN-10 was examined as described in example 11b. Namely, the expression of phase I biotransformation markers, CYP 450 isoforms was examined. […] In comparison, the expression of latter proteins was lost in controls (untreated cells).
(§6) Hepatocytes (0.57×10^5 cells/cm^2) were cultured in Williams' E medium supplemented with insulin (0.5 μg/ml), glucagon (7 ng/ml) and hydrocortisone (25 μg/ml). Exposure to the indicated concentrations of HDACi started at time of plating and was maintained for 4 consecutive days. Cells were harvested at indicated time points and analyzed for CYP2 B1 and CYP1 A1 expression levels (40 μg proteins/lane).

CYP2 B1 = assay: as above; type: cell-based; details: 4 days exposure; expression lost in untreated controls
Experimental: as §4, §5, §6

Row | SMILES | IC50 (rat hepatocyte HDAC) [µM] | Concentration achieving maximal (100%) inhibition of rat primary hepatocyte proliferation (primary rat hepatocytes [1]) [µM] | Cell cycle arrest (primary rat hepatocytes [2]) | also measured
1 | O=C(CCCCCNC(=O)c1ccc(N2CCCCC2)cc1)NO [AN-15] | 0.5 ± 0.108 | – | – | –
2 | O=C(CCCCCNC(=O)c1ccc(N2CCCC2)cc1)NO [AN-8] | 0.055 ± 0.019 | 7.5 | induced an early G1 cell cycle arrest | –
3 | O=C(CCCCNC(=O)c1cc2ccccc2[nH]1)NO [AN-9] | 0.313 ± 0.05 | – | – | –
4 | O=C(CCCCCNC(=O)c1ccc(N2CCOCC2)cc1)NO [AN-16] | 1.01 ± 0.31 | – | – | –
5 | CN(C)c1ccc(C(=O)NCCCCC(=O)NO)cc1 | – | – | – | HDAC inhibitory activity (HDAC): potent HDAC inhibitor; Metabolic stability [3]: metabolically more stable than TSA
6 | O=C(CCCCNC(=O)c1ccc(N2CCOCC2)cc1)NO [AN-14] | 4.49 ± 1.82 | – | – | –
7 | O=C(CCCCCNC(=O)c1ccccc1)NO [AN-5] | – | 50 | able to induce a similar early G1 cell cycle arrest | –
8 | CC(/C=C/C(=O)NO)=C\[C@@H](C)C(=O)c1ccc(N(C)C)cc1 [TSA, Trichostatin A] | – | – | – | HDAC inhibitory activity (HDAC): potent specific inhibitor of Class I and Class II HDAC in vitro and in vivo; HNF-1α expression and localisation (HNF-1α): induces expression of HNF-1α in nucleus already on D3; HNF-4 expression and activity (HNF-4): expressed and active from D3 onwards, either with or without addition of TSA; HNF-3β expression and localisation (HNF-3β): already expressed at D3 of the differentiation process and is located inside the nucleus; Morphology of differentiating RLEC (RLEC; 320 nM, D2, example 13 sequence): more polygonal shape; Morphology of differentiating RLEC (RLEC; 1 μM, D9, example 13 sequence): differentiate into binuclear, polygonal to cuboidal shaped cells; Cell death of differentiating RLEC (RLEC; 1 μM, example 13 sequence): causes some cell death; Morphology of differentiating RLEC (RLEC; protocol of example 5 with TSA addition): more fibroblast like shape
9 | O=C(CCCCCNC(=O)c1cc2ccccc2[nH]1)NO [AN-10] | 0.014 ± 0.004 | 7.5 | induced an early G1 cell cycle arrest | CYP1 A1 expression during the entire culture period (CYP1 A1): remarkable ability to maintain
10 | O=C(CCCCNC(=O)c1ccc(N2CCCCC2)cc1)NO [AN-13] | 2.25 ± 0.616 | – | – | –
11 | O=C(CCCCCNC(=O)c1ccc(Cl)cc1)NO [AN-7] | 0.084 ± 0.027 | – | – | –
12 | CN(C)c1ccc(C(=O)NCCCCCC(=O)NO)cc1 [AN-6, 6-(4-dimethylaminobenzoyl)-aminocaproic acid hydroxamid] | 0.024 ± 0.002 | 10 | induced an early G1 cell cycle arrest | CYP2 B1 expression during the entire culture period (CYP2 B1): remarkable ability to maintain
13 | CN(C)c1ccc(C(=O)NCCCCC(=O)NO)cc1 [AN-1, 5-(4-dimethylaminobenzoyl)-aminovaleric acid hydroxamid] | 0.301 ± 0.028 | 50 | – | –
